ChEMBL document CHEMBL1201862, “PubChem BioAssay data set” (2004)
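Step 1: Grow cells in 96-well plates. Step 2: Expose to compound for 48 hours at 5 concentrations. Step 3: Interpolate endpoints linearly; if unreached, use highest concentration. GI50: concentration for 50% inhibition of growth.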 Calls of active or inactive are those of the source. Rule as the data show it: active = GI50 up to about 1.1 µM and inactive = higher.

Tests used:
Assay in all cases: NCI anticancer screen, dose series, 48 h
[1] = tested on: RPMI-8226
[2] = tested on: A549
[3] = tested on: UACC-257
[4] = tested on: SF-539
[5] = tested on: HOP-92
[6] = tested on: NCI-H23
[7] = tested on: K562
[8] = tested on: COLO 205
[9] = tested on: SW-620
[10] = tested on: T47D
[11] = tested on: OVCAR-8
[12] = tested on: M14
[13] = tested on: OVCAR-5
[14] = tested on: UACC-62
[15] = tested on: SNB-19
[16] = tested on: ACHN
[17] = tested on: DU-145
[18] = tested on: MDA-MB-435
[19] = tested on: HCT-116
[20] = tested on: CAKI-1
[21] = tested on: SK-OV-3
[22] = tested on: TK-10
[23] = tested on: SF-268
[24] = tested on: PC-3
[25] = tested on: SF-295
[26] = tested on: SK-MEL-28
[27] = tested on: SNB-75
[28] = tested on: HCT-15
[29] = tested on: SK-MEL-5
[30] = tested on: KM12
[31] = tested on: MDA-N
[32] = tested on: NCI-H460
[33] = tested on: NCI/ADR-RES
[34] = tested on: HOP-62
[35] = tested on: SR
[36] = tested on: OVCAR-4
[37] = tested on: HT-29
[38] = tested on: U-251
[39] = tested on: HL-60
[40] = tested on: OVCAR-3
[41] = tested on: SN12C
[42] = tested on: MOLT-4
[43] = tested on: A498
[44] = tested on: MDA-MB-231
[45] = tested on: MCF7
[46] = tested on: SK-MEL-2
[47] = tested on: 786-0
[48] = tested on: NCI-H226
[49] = tested on: UO-31
[50] = tested on: CCRF-CEM
[51] = tested on: HCC 2998
[52] = tested on: Hs-578T
[53] = tested on: Malme-3M
[54] = tested on: BT-549
[55] = tested on: LOX IMVI
[56] = tested on: RXF 393
[57] = tested on: EKVX
[58] = tested on: IGROV-1
[59] = tested on: NCI-H522

Measured: GI50

CC(C)[Si](OC12CCC(CC1O)CC2C(=O)O)(C(C)C)C(C)C (stereo unspecified)
active: [39] 0.459 µM
inactive: [1] 10.1 µM | [2] 14.5 µM | [3] 16.7 µM | [4] 27.4 µM | [5] 7.31 µM | [6] 15.5 µM | [7] 31.6 µM | [8] 21.7 µM | [9] 14.9 µM | [10] 13.9 µM | [11] 16.1 µM | [12] 15.8 µM | [13] 14 µM | [14] 14 µM | [15] 15.6 µM | [16] 15.7 µM | [17] 14.2 µM | [18] 14.5 µM | [19] 10.7 µM | [20] 19.1 µM | [21] 13.9 µM | [22] 3.88 µM | [23] 12.7 µM | [24] 12.5 µM | [25] 15.7 µM | [26] 11.2 µM | [27] 6.1 µM | [29] 18.9 µM | [30] 12.4 µM | [31] 17 µM | [32] 7.76 µM | [33] 13.2 µM | [34] 14.4 µM | [35] 23.2 µM | [36] 12.6 µM | [37] 11.7 µM | [38] 14.6 µM | [40] 14.8 µM | [41] 21.7 µM | [42] 13.2 µM | [43] 15.3 µM | [44] 14.7 µM | [45] 11.3 µM | [46] 14.6 µM | [47] 11 µM | [48] 12 µM | [49] 13.2 µM | [50] 13.1 µM
12.4 µM: [28]

Cn1c(-c2cccc(N)c2)[n+](C)c2ccccc21
> 100 µM: [28]
inactive: [1] > 100 µM | [2] 40.9 µM | [3] > 100 µM | [4] > 100 µM | [5] > 100 µM | [6] 48.3 µM | [7] > 100 µM | [8] 38.7 µM | [9] > 100 µM | [10] > 100 µM | [51] > 100 µM | [11] > 100 µM | [12] > 100 µM | [52] 64.6 µM | [13] > 100 µM | [53] > 100 µM | [14] > 100 µM | [15] 60.3 µM | [54] > 100 µM | [16] > 100 µM | [55] > 100 µM | [17] > 100 µM | [18] > 100 µM | [19] > 100 µM | [20] > 100 µM | [21] > 100 µM | [22] > 100 µM | [23] > 100 µM | [24] > 100 µM | [25] > 100 µM | [26] > 100 µM | [27] > 100 µM | [29] 57.3 µM | [30] > 100 µM | [56] > 100 µM | [57] > 100 µM | [32] > 100 µM | [33] > 100 µM | [34] > 100 µM | [35] > 100 µM | [36] > 100 µM | [37] > 100 µM | [38] > 10 µM | [39] 36.1 µM | [40] > 100 µM | [42] > 100 µM | [43] 22.4 µM | [58] > 100 µM | [44] > 100 µM | [45] > 100 µM | [46] > 100 µM | [47] > 100 µM | [48] > 100 µM | [49] > 100 µM | [50] 53.1 µM

COc1ccc(C2=C3SC=c4ccccc4=C3ON=C2c2ccccc2)cc1
> 100 µM: [28]
inactive: [1] 69.2 µM | [2] > 100 µM | [3] > 100 µM | [4] > 100 µM | [5] 68.1 µM | [6] > 100 µM | [7] 22.9 µM | [8] > 100 µM | [9] > 100 µM | [10] 25.4 µM | [51] > 100 µM | [11] > 100 µM | [12] > 100 µM | [52] > 100 µM | [13] > 100 µM | [53] > 100 µM | [14] > 100 µM | [15] > 100 µM | [54] > 100 µM | [16] > 100 µM | [55] > 100 µM | [17] > 100 µM | [18] > 100 µM | [19] 57.4 µM | [20] > 100 µM | [22] > 100 µM | [23] > 100 µM | [24] > 100 µM | [25] > 100 µM | [26] > 100 µM | [59] 53.8 µM | [29] > 100 µM | [30] > 100 µM | [56] > 100 µM | [57] > 100 µM | [32] > 100 µM | [33] > 100 µM | [34] > 100 µM | [35] 42 µM | [36] > 100 µM | [37] > 100 µM | [38] > 100 µM | [39] > 100 µM | [40] 94.8 µM | [41] > 100 µM | [42] 37.2 µM | [43] > 100 µM | [58] > 100 µM | [44] > 100 µM | [45] > 100 µM | [46] > 100 µM | [47] > 100 µM | [48] > 100 µM | [49] > 100 µM | [50] 84.3 µM

Cc1[nH]nc(-c2ccon2)c1N=O
18.2 µM: [28]
inactive: [1] 3.78 µM | [2] 23.7 µM | [3] 17.4 µM | [4] 17.9 µM | [5] 14.2 µM | [6] 19.3 µM | [7] 18.5 µM | [8] 19.9 µM | [9] 21.2 µM | [10] 25.1 µM | [11] 17 µM | [12] 20.8 µM | [52] 26.9 µM | [13] 19.3 µM | [53] 20.7 µM | [14] 17.9 µM | [15] 26.9 µM | [54] 18.6 µM | [16] 15 µM | [17] 21.4 µM | [18] 20.5 µM | [19] 23.1 µM | [20] 25.8 µM | [21] 26.3 µM | [22] 18.7 µM | [23] 20 µM | [24] 25.3 µM | [25] 18.7 µM | [26] 20.2 µM | [27] 32.2 µM | [59] 20 µM | [29] 18.2 µM | [30] 21 µM | [56] 34.3 µM | [57] 16.7 µM | [32] 36.1 µM | [33] 19.8 µM | [34] 21 µM | [35] 10 µM | [36] 17.5 µM | [37] 18.2 µM | [38] 17.9 µM | [39] 12.1 µM | [40] 18.4 µM | [41] 26.7 µM | [42] 2 µM | [43] > 100 µM | [58] 23 µM | [44] 16.8 µM | [45] 22.9 µM | [46] 34.3 µM | [47] 20.4 µM | [48] 14.6 µM | [49] 19.8 µM

Cc1c(CCCl)c(N=P(c2ccccc2)(c2ccccc2)c2ccccc2)n2c(nc3ccccc32)c1C#N
inactive: [1] > 10 µM | [2] > 10 µM | [3] > 10 µM | [6] > 10 µM | [7] > 10 µM | [8] > 10 µM | [9] > 10 µM | [10] > 10 µM | [51] > 10 µM | [11] > 10 µM | [12] > 10 µM | [53] > 10 µM | [14] > 10 µM | [55] > 10 µM | [17] > 10 µM | [20] > 10 µM | [21] > 10 µM | [22] > 10 µM | [23] > 10 µM | [24] > 10 µM | [25] > 10 µM | [26] > 10 µM | [27] > 10 µM | [29] > 10 µM | [30] > 10 µM | [56] > 10 µM | [57] > 10 µM | [31] > 10 µM | [34] > 10 µM | [35] > 10 µM | [37] 5.79 µM | [41] > 10 µM | [42] > 10 µM | [58] > 10 µM | [44] > 10 µM | [45] > 10 µM | [47] > 10 µM | [50] 4.67 µM
> 10 µM: [28]
